For experiment [1], the target named is α-Bungarotoxin-insensitive (α4β2) neuronal nicotinic receptor (Rattus norvegicus, UniProt P09483+P12390). Put plainly: biochemical. The note with it: read-out: percent inhibition of the control radioligand specific binding.
For a further experiment, the system named is male Balb/cJ mice. Put plainly: Forced swim test in mice. The format is in vivo. The protocol:
The subjects were male Balb/cJ mice obtained from Jackson Laboratory, Bar Harbor, Me. Mice were housed 4 per cage under controlled conditions of temperature, relative humidity and light-dark cycle with free access to food and water.
Mice were individually placed into clear glass cylinders (i.e., 15 cm tall×10 cm wide, 1 L beakers) containing 23±1° C. water 12 cm deep (approximately 800 mL). The time the animal spent immobile was recorded over a 6 min trial. Immobility was described as the postural position of floating in the water.
The mice were injected intraperitoneally (i.p.) 30 minutes before the start of the test. In another set of experiments, the test compounds were administered orally (p.o.) 30 minutes before the start of the test.
The length of time spent floating was analyzed by Analysis of Variance (ANOVA) with dose of drug as the between-subject factor and time spent immobile across the 6 min test as the dependent variable. Post-hoc comparisons between the treatment groups and control group were made using Fisher's PLSD test. A significance level of 5% was used throughout.

The next experiment addresses T1, α4β4 nicotinic receptor (Rattus norvegicus, UniProt P09483+P12392).
T1 construct: expressed in transfected cells; host or cells: stably transfected cell lines (e.g., HEK293, COS, CHO, NIH3T3)
The class given is binding.

“And” between values parts separate entries of the source, which are not always exact repeats. Identical values can stand only once. Counter-ions that a name gives are not always drawn. Marks after values point to notes of the source that are not given here.

Broadly, the inhibition is the share of the control response that was lost under treatment. The Ki is the dissociation constant of the complex between target and ligand, obtained from inhibition or displacement. Lower therefore signals higher affinity.

Sequence of α-Bungarotoxin-insensitive (α4β2) neuronal nicotinic receptor (P09483 31-630): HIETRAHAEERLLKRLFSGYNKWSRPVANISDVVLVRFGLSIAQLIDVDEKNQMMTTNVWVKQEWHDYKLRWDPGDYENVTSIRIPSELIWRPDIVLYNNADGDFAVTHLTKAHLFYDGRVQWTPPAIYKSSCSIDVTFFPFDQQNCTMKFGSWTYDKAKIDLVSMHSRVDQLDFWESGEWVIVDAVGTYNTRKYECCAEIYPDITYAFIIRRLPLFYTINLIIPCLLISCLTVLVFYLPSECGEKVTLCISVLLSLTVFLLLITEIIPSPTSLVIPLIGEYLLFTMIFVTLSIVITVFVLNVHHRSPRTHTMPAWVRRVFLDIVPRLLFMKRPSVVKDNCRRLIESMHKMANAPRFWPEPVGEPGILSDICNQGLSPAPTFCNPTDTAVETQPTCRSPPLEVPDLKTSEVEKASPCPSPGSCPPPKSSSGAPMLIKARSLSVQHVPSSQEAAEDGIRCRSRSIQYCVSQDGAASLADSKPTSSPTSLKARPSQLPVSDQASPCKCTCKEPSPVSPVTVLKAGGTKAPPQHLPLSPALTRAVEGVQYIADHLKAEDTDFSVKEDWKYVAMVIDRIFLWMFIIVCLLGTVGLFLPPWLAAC
Sequence of α-Bungarotoxin-insensitive (α4β2) neuronal nicotinic receptor (P12390 25-500): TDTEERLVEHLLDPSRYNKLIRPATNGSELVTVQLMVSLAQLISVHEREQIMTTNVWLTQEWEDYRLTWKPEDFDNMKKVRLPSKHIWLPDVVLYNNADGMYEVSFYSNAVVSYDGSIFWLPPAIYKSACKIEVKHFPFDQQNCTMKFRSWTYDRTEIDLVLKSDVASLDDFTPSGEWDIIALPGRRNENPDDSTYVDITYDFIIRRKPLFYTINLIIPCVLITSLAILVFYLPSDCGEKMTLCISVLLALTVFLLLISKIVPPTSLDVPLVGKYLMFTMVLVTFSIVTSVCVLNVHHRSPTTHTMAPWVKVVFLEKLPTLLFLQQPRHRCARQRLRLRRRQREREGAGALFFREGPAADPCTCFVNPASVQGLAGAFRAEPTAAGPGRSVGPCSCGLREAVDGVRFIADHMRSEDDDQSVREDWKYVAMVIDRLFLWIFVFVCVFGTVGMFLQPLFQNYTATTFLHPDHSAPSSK
T1 sequence (P09483 31-630): as the sequence (P09483 31-630) above
T1 sequence (P12392 21-495): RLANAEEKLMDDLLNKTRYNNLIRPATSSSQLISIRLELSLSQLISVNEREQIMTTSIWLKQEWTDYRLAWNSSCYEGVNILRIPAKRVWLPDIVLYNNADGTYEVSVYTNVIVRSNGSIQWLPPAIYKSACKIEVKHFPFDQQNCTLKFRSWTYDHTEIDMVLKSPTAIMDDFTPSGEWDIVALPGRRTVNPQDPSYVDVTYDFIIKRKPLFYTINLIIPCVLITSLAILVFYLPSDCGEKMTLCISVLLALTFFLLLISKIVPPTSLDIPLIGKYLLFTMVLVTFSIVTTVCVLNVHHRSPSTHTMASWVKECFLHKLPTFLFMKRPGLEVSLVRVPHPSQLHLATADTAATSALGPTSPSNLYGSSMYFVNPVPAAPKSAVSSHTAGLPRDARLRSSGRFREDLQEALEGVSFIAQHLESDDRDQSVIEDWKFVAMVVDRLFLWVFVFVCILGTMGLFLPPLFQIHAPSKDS
Procedure for α4β4 nicotinic receptor: All binding assays were performed according to procedures set forth in the University of North Carolina at Chapel Hill National Institute of Mental Health Psychoactive Drug Screening Program Assay Protocol Book (pp. 50-54; PI: Bryan L. Roth MD, PhD).
Nicotinic receptors: α2β2, α2β4, α3β2, α3β4, α4β2, α4β4, endogenous α4β2. Assay buffer: 50 mM Tris-HCl, pH 7.4. Membrane fraction source: Stably transfected cell lines (e.g., HEK293, COS, CHO, NIH3T3) (α2β2, α2β4, α3β2, α3β4, α4β2, α4β4) or rat forebrain (α4β2).
Aliquots (50 μl) of radioligand were dispensed into the wells of a 96-well plate containing 100 μl of assay buffer. Then, duplicate 50-0 aliquots of the test and reference compound dilutions were added. […]
The 250-μl reactions were incubated at room temperature and shielded from light (to prevent photolysis of light-sensitive ligands) for 4 hours, then harvested by rapid filtration onto Whatman GF/B glass fiber filters pre-soaked with 0.5% polyethyleneimine using a 96-well Brandel harvester. […] The tubes were capped, labeled, and counted by liquid scintillation counting. […]

For `OCCCc1cccc(-c2cncc(OC[C@H]3CCN3)c2)c1` [Example 19, 3-[3-[5-[(2(R)-Azetidinyl)methoxy]-3-pyridyl]phenyl]-1-propanol], the inhibition at 0.1 µM in experiment [1] lay within 59 to 100%.
Regarding `c1ccc(COCCC2CCN(c3cncc(OC[C@@H]4CCCN4)c3)CC2)cc1` [Example 51, 3-[4-[2-(Benzyloxy)ethyl]-1-piperidinyl]-5-[(2(S)-pyrrolidinyl)methoxy]pyridine], the inhibition at 0.1 µM in experiment [1] fell in the range of 59 to 100%.
Same read-out and setting: for `OCc1cc(-c2cncc(OC[C@@H]3CCN3)c2)on1` [Example 37, 5-[5-(2(S)-Azetidinylmethoxy)-3-pyridyl]-3-isoxazolylmethanol] the value was 59 to 100%.
As to `OCCCc1cccc(-c2cncc(OC[C@@H]3CCN3)c2)c1` [Example 15c, 3-[3-[5-[(2(S)-Azetidinyl)methoxy]-3-pyridyl]phenyl]-1-propanol], the inhibition at 0.1 µM in experiment [1] was in the range of 59 to 100%. In the experiment with male Balb/cJ mice (mouse, in vivo), the “change in immobility time compared to the vehicle” value is recorded as “did not show any change”. Besides, the “reduction in immobility time compared to vehicle” value in the experiment on male Balb/cJ mice (mouse, in vivo) was 24.5 s. The “effects in the forced swim test as indicated by a reduction in immobility time” value (“effects … by a reduction in immobility time” below) in the experiment on male Balb/cJ mice (mouse, in vivo, ip) is recorded as “positive effects”. Besides, the “Average Immobility Time” value is 110.6 s in the experiment with male Balb/cJ mice (mouse, in vivo, ip, 5 mg/kg); 105.1** seconds and 85.3** seconds in the experiment on male Balb/cJ mice (mouse, in vivo, ip, 10 mg/kg); 49.7** seconds in the experiment with male Balb/cJ mice (mouse, in vivo, ip, 20 mg/kg).
`OCCc1cccc(-c2cncc(OC[C@@H]3CCN3)c2)c1` [Example 24, 2-[3-[5-[(2(S)-Azetidinyl)methoxy]-3-pyridyl]phenyl]ethanol]: in experiment [1], the inhibition at 0.1 µM fell in the range of 59 to 100%.
As to `c1ccc(OC[C@H]2C[C@@H]2c2cncc(OC[C@@H]3CCN3)c2)cc1` [Example 11, 3-[(2(S)-Azetidinyl)methoxy]-5-[(1S,2S)-2-(phenoxymethyl)cyclopropyl]pyridine], in experiment [1], the inhibition at 0.1 µM fell in the range of 59 to 100%.
`CN1CCC[C@H]1COc1cncc(-c2cc(CCCOc3ccccc3)no2)c1` [Example 41, 3-[(1-Methyl-2(S)-pyrrolidinyl)methoxy]-5-[3-(3-phenoxypropyl)-5-isoxazolyl]pyridine Hydrochloride]: the inhibition at 0.1 µM in experiment [1] is 59 to 100%.
As to `OCC[C@H]1C[C@@H]1c1cncc(OC[C@@H]2CCN2)c1` [Example 2, 2-[(1R,2S)-2-[5-[(2(S)-Azetidinyl)methoxy]-3-pyridyl]cyclopropyl]ethanol], the inhibition at 0.1 µM in experiment [1] is 59 to 100%. Further, in the experiment on male Balb/cJ mice (mouse, in vivo, ip), the “effects … by a reduction in immobility time” value is “positive effects”. Moreover, the “Average Immobility Time” value in the experiment with male Balb/cJ mice (mouse, in vivo, ip, 10 mg/kg) is 44** seconds; in the experiment on male Balb/cJ mice (mouse, in vivo, ip, 20 mg/kg), 7** seconds.
On to `c1cncc(OC[C@H]2C[C@@H]2c2cncc(OC[C@@H]3CCN3)c2)c1` [Example 12, 3-[(2(S)-Azetidinyl)methoxy]-5-[(1S,2S)-2-[(3-pyridyloxy)methyl]cyclopropyl]pyridine], for which the inhibition at 0.1 µM in experiment [1] fell in the range of 59 to 100%.
For the compound `OCCCc1ccc(-c2cncc(OC[C@@H]3CCN3)c2)cc1` [Example 15d], in experiment [1], the inhibition at 0.1 µM was 59 to 100%.
As for `c1ccc(OCCC2CCN(c3cncc(OC[C@@H]4CCCN4)c3)CC2)cc1` [Example 58, 3-[4-(2-Phenoxyethyl)-1-piperidinyl]-5-[(2(S)-pyrrolidinyl)methoxy]pyridine], the inhibition at 0.1 µM in experiment [1] lay in the range of 8 to 28%.
Consider `c1ccc(COCCC2CCN(c3cncc(OC[C@H]4CCCN4)c3)CC2)cc1` [Example 62, 3-[4-[2-(Benzyloxy)ethyl]-1-piperidinyl]-5-[(2(R)-pyrrolidinyl)methoxy]pyridine], for which, in experiment [1], the inhibition at 0.1 µM lay in the range of 8 to 28%.
For the compound `Oc1ccc(OCCC2CCN(c3cncc(OC[C@@H]4CCCN4)c3)CC2)cc1` [Example 70, 4-[2-[1-[5-[(2(S)-Pyrrolidinyl)methoxy]-3-pyridyl]-4-piperidinyl]ethoxy]phenol], in experiment [1], the inhibition at 0.1 µM fell in the range of 8 to 28%.
As for `CC(=O)NCCCc1cccc(-c2cncc(OC[C@@H]3CCN3)c2)c1` [Example 22, N-(3-[3-[5-[(2(S)-Azetidinyl)methoxy]-3-pyridyl]phenyl]propyl]acetamide], the inhibition at 0.1 µM in experiment [1] was in the range of 59 to 100%.
Turning to `OCCCCC#Cc1cncc(OC[C@@H]2CCN2)c1` [AMOP—H—OH], the “effects … by a reduction in immobility time” value in the experiment on male Balb/cJ mice (mouse, in vivo, ip) is on record as “positive effects”. The “Average Immobility Time” value in the experiment on male Balb/cJ mice (mouse, in vivo, ip, 0.3 mg/kg) is 116.7 s; with male Balb/cJ mice (mouse, in vivo, ip, 1 mg/kg) it was 20.2** seconds; in the experiment on male Balb/cJ mice (mouse, in vivo, ip, 10 mg/kg) it was 5.3** seconds.
Turning to `c1ccc(COC[C@H]2C[C@@H]2c2cncc(OC[C@@H]3CCN3)c2)nc1` [Example 14, 3-[(2(S)-Azetidinyl)methoxy]-5-[(1S,2S)-2-[(2-pyridinylmethoxy)methyl]cyclopropyl]pyridine], in experiment [1], the inhibition at 0.1 µM was 59 to 100%.
`CN[C@H]1CC[C@@H](c2ccc(Cl)c(Cl)c2)c2ccccc21` [Sertraline, sertraline, reference compound]: the “Average Immobility Time” value in the experiment on male Balb/cJ mice (Table 2, 20 mg/kg i.p., 30 min before test, 6 min trial, vehicle 126.3) is reported as 11.99** seconds; in the experiment on male Balb/cJ mice (Table 4, 10 mg/kg i.p., 30 min before test, 6 min trial, vehicle 115.2), 23.7** seconds; with male Balb/cJ mice (Table 5, 10 mg/kg i.p., 30 min before test, 6 min trial, vehicle 104.9) it was 47.8** seconds.
Turning to `c1ccc(COCCc2cccc(-c3cncc(OC[C@@H]4CCN4)c3)c2)cc1` [Example 27, 3-[((2S)-Azetidinyl)methoxy]-5-[3-[2-(benzyloxy)ethyl]phenyl]pyridine], in experiment [1], the inhibition at 0.1 µM was 59 to 100%.
Take `OCC[C@H]1C[C@@H]1c1cncc(OC[C@@H]2CCN2)c1` [drawing 418]: on α4β4 nicotinic receptor, affinity was put at a Ki of 83 nM.
For the compound `c1ncc(N2CC3CC3C2)cc1OC[C@@H]1CCN1` (stereo partly drawn) [Example 46, 3-[5-[(2(S)-Azetidinyl)methoxy]-3-pyridyl]-3-azabicyclo[3.1.0]hexane], in experiment [1], the inhibition at 0.1 µM lay within 59 to 100%.

The values are drawn from US20130184313A1, “NICOTINIC ACETYLCHOLINE RECEPTOR LIGANDS AND THE USES THEREOF” (The Board of Trustees of the University of Illinois, priority 2009, published 2013).
